Source: patent publication US6395896B2, “Pyridazine derivatives, manufacturing method and related composition” (Shiseido Co., Ltd., priority 1999, dated 2002)

Legend:
[1] = Drug stabilization effect (photostabilizer, sunlight exposure); parameters: key to Sunlight exposure (80 MJ) Appearance: A: No change; B: No almost change; C: Yes change; conditions: photostabilizer 0.05, amounts wt %
Procedure: Next, the photo stabilization effect and changes in appearance in drug compositions were studied according to the following evaluation formulation.
Each test sample was prepared. Appearance changes of the samples exposed to sunlight (80 MJ) was observed (visual evaluation). Also, residual yield was measured by liquid chromatography.

[2] = Colorant stabilization effect (photostabilizer, sunlight exposure); parameters: key to Sunlight exposure (80 MJ) Appearance: A: No change; B: No almost change; C: Yes change; key to Sunlight exposure (80 MJ) ΔE: ΔE color difference (Lab) vs. color before sunlight exposure; conditions: photostabilizer 0.05 wt %
Procedure: First of all, the photostabilization effect and appearance change of a composition in each pigment were studied by the following evaluation formulation.
Each test sample was prepared. Observation of appearance change (visual evaluation) and measurement of color difference (ΔE) were carried out in samples exposed to sunlight exposure (around 80 MJ).
Color difference was measured by Lab coordinate system with spectrophotometer. Color difference was calculated on the basis of the color before sunlight exposure. Namely, from measured value (L1,a1,b1) before sunlight exposure, color difference (ΔE) was calculated by following formula.

[3] = Perfume stabilization effect (photostabilizer, sunlight exposure, judgement by perfumier); parameters: key to Sunlight exposure (80 MJ) Smell evaluation / Sunlight exposure (80 MJ) evaluation: A: No change; B: No almost change; C: Yes change
Procedure: Next, the photostabilization effect for each perfume was studied by the following evaluation formulation.
Each test sample was prepared. Change of smell of sample exposed to sunlight (80 MJ) was observed (judgement by perfumier).

[4] = drug 2-o-α-α-glucopyranosyl-L-ascorbic acid 2.0
[5] = drug Dibutylhydroxytoluene 0.01
[6] = drug Dipotassium glycyrrhizinate 0.05
[7] = drug L-ascorbic acid 2-(dl-α-tocopheryl hydrogen phosphate) potassium salt 0.01
[8] = Base perfume Fruity 0.03 wt %, photostabilizer 0.1 wt %
[9] = Base perfume Muguet 0.03 wt %, photostabilizer 0.05 wt %
[10] = Base perfume Rose 0.03 wt %, photostabilizer 0.05 wt %
[11] = Base perfume Spicy 0.03 wt %, photostabilizer 0.2 wt %
[12] = Base perfume Woody 0.03 wt %, photostabilizer 0.1 wt %
[13] = Natural perfume Jasmine oil 0.03 wt %, photostabilizer 0.05 wt %
[14] = Natural perfume Lavender oil 0.03 wt %, photostabilizer 0.1 wt %
[15] = Natural perfume Neroli oil 0.03 wt %, photostabilizer 0.1 wt %
[16] = Natural perfume Rose oil 0.03 wt %, photostabilizer 0.05 wt %
[17] = Natural perfume Ylang ylang oil 0.03 wt %, photostabilizer 0.2 wt %
[18] = Synthetic perfume Citral 0.03 wt %, photostabilizer 0.1 wt %
[19] = Synthetic perfume Limonene 0.03 wt %, photostabilizer 0.05 wt %
[20] = Synthetic perfume Linalool 0.03 wt %, photostabilizer 0.05 wt %
[21] = Synthetic perfume Linalyl acetate 0.03 wt %, photostabilizer 0.1 wt %
[22] = Synthetic perfume Rose oxide 0.03 wt %, photostabilizer 0.2 wt %
[23] = Red No. 106 0.00001 wt % + Yellow No. 5 0.0001 wt %
[24] = Red No. 106 0.00001 wt % + Yellow No. 203 0.0001 wt %
[25] = Red No. 213 0.00001 wt % + Blue No. 1 0.00001 wt %
[26] = Red No. 227 0.0001 wt % + Yellow No. 5 0.0001 wt %
[27] = Red No. 227 0.0001 wt % + Yellow No. 203 0.0001 wt %
[28] = Red No. 401 0.0001 wt % + Blue No. 1 0.00001 wt %
[29] = Red No. 401 0.0001 wt % + Green No. 3 0.00001 wt %
[30] = Yellow No. 203 0.0001 wt % + Yellow No. 5 0.0001 wt %

COc1cc(O)c(C(=O)c2ccccc2)cc1S(=O)(=O)[O-].[Na+] [2-Hydroxy-4-methoxybenzophenone-5-sodium sulfonate, reference compound]
Sunlight exposure (80 MJ) Appearance [1, 4]: B | Sunlight exposure (80 MJ) Residual yield [%] [1, 4]: 97.8% | Sunlight exposure (80 MJ) Appearance [1, 5]: B | Sunlight exposure (80 MJ) Residual yield [%] [1, 5]: 94.8% | Sunlight exposure (80 MJ) Appearance [1, 6]: B | Sunlight exposure (80 MJ) Residual yield [%] [1, 6]: 97.5% | Sunlight exposure (80 MJ) Appearance [1, 7]: B | Sunlight exposure (80 MJ) Residual yield [%] [1, 7]: 95.0% | Sunlight exposure (80 MJ) Appearance ([1]; drug Salicylic acid 0.1): B | Sunlight exposure (80 MJ) Residual yield [%] ([1]; drug Salicylic acid 0.1): 98.0% | Sunlight exposure (80 MJ) Appearance ([2]; Blue No. 1 0.0001 wt %): B | Sunlight exposure (80 MJ) ΔE ([2]; Blue No. 1 0.0001 wt %): 1.67 | Sunlight exposure (80 MJ) Appearance ([2]; Green No. 3 0.0001 wt %): B | Sunlight exposure (80 MJ) ΔE ([2]; Green No. 3 0.0001 wt %): 0.74 | Sunlight exposure (80 MJ) Appearance ([2]; Red No. 106 0.0001 wt %): B | Sunlight exposure (80 MJ) ΔE ([2]; Red No. 106 0.0001 wt %): 0.98 | Sunlight exposure (80 MJ) Appearance ([2]; Red No. 213 0.0001 wt %): B | Sunlight exposure (80 MJ) ΔE ([2]; Red No. 213 0.0001 wt %): 1.28 | Sunlight exposure (80 MJ) Appearance ([2]; Red No. 227 0.0001 wt %): B | Sunlight exposure (80 MJ) ΔE ([2]; Red No. 227 0.0001 wt %): 0.80 | Sunlight exposure (80 MJ) Appearance ([2]; Red No. 401 0.001 wt %): B | Sunlight exposure (80 MJ) ΔE ([2]; Red No. 401 0.001 wt %): 1.39 | Sunlight exposure (80 MJ) Appearance ([2]; Yellow No. 5 0.001 wt %): B | Sunlight exposure (80 MJ) ΔE ([2]; Yellow No. 5 0.001 wt %): 0.78 | Sunlight exposure (80 MJ) Appearance ([2]; Yellow No. 203 0.001 wt %): B | Sunlight exposure (80 MJ) ΔE ([2]; Yellow No. 203 0.001 wt %): 0.76 | Sunlight exposure (80 MJ) Smell evaluation [3, 8]: B | Sunlight exposure (80 MJ) Smell evaluation [3, 9]: B | Sunlight exposure (80 MJ) Smell evaluation [3, 10]: B | Sunlight exposure (80 MJ) Smell evaluation [3, 11]: B | Sunlight exposure (80 MJ) Smell evaluation [3, 12]: B | Sunlight exposure (80 MJ) Smell evaluation [3, 13]: B | Sunlight exposure (80 MJ) Smell evaluation [3, 14]: B | Sunlight exposure (80 MJ) Smell evaluation [3, 15]: B | Sunlight exposure (80 MJ) Smell evaluation [3, 16]: B | Sunlight exposure (80 MJ) Smell evaluation [3, 17]: B | Sunlight exposure (80 MJ) Smell evaluation [3, 18]: B | Sunlight exposure (80 MJ) Smell evaluation [3, 19]: B | Sunlight exposure (80 MJ) Smell evaluation [3, 20]: B | Sunlight exposure (80 MJ) Smell evaluation [3, 21]: B | Sunlight exposure (80 MJ) Smell evaluation [3, 22]: B

COc1ccc(C(=O)CC(=O)c2ccc(C(C)(C)C)cc2)cc1 [4-tert-Butyl-4′-methoxy-di-benzoylmethane, reference compound]
Sunlight exposure (80 MJ) Appearance [1, 4]: B | Sunlight exposure (80 MJ) Residual yield [%] [1, 4]: 97.0% | Sunlight exposure (80 MJ) Appearance [1, 5]: B | Sunlight exposure (80 MJ) Residual yield [%] [1, 5]: 95.2% | Sunlight exposure (80 MJ) Appearance [1, 6]: B | Sunlight exposure (80 MJ) Residual yield [%] [1, 6]: 96.6% | Sunlight exposure (80 MJ) Appearance [1, 7]: B | Sunlight exposure (80 MJ) Residual yield [%] [1, 7]: 94.5% | Sunlight exposure (80 MJ) Appearance ([1]; drug Salicylic acid 0.1): B | Sunlight exposure (80 MJ) Residual yield [%] ([1]; drug Salicylic acid 0.1): 97.2% | Sunlight exposure (80 MJ) Appearance ([2]; Blue No. 1 0.0001 wt %): B | Sunlight exposure (80 MJ) ΔE ([2]; Blue No. 1 0.0001 wt %): 1.49 | Sunlight exposure (80 MJ) Appearance ([2]; Green No. 3 0.0001 wt %): B | Sunlight exposure (80 MJ) ΔE ([2]; Green No. 3 0.0001 wt %): 0.62 | Sunlight exposure (80 MJ) Appearance [2, 23]: B | Sunlight exposure (80 MJ) ΔE [2, 23]: 0.92 | Sunlight exposure (80 MJ) Appearance [2, 24]: B | Sunlight exposure (80 MJ) ΔE [2, 24]: 1.02 | Sunlight exposure (80 MJ) Appearance ([2]; Red No. 106 0.0001 wt %): B | Sunlight exposure (80 MJ) ΔE ([2]; Red No. 106 0.0001 wt %): 1.02 | Sunlight exposure (80 MJ) Appearance [2, 25]: B | Sunlight exposure (80 MJ) ΔE [2, 25]: 1.17 | Sunlight exposure (80 MJ) Appearance ([2]; Red No. 213 0.0001 wt %): B | Sunlight exposure (80 MJ) ΔE ([2]; Red No. 213 0.0001 wt %): 1.02 | Sunlight exposure (80 MJ) Appearance [2, 26]: B | Sunlight exposure (80 MJ) ΔE [2, 26]: 0.80 | Sunlight exposure (80 MJ) Appearance [2, 27]: B | Sunlight exposure (80 MJ) ΔE [2, 27]: 1.12 | Sunlight exposure (80 MJ) Appearance ([2]; Red No. 227 0.0001 wt %): B | Sunlight exposure (80 MJ) ΔE ([2]; Red No. 227 0.0001 wt %): 0.95 | Sunlight exposure (80 MJ) Appearance [2, 28]: B | Sunlight exposure (80 MJ) ΔE [2, 28]: 0.93 | Sunlight exposure (80 MJ) Appearance [2, 29]: B | Sunlight exposure (80 MJ) ΔE [2, 29]: 0.99 | Sunlight exposure (80 MJ) Appearance ([2]; Red No. 401 0.001 wt %): B | Sunlight exposure (80 MJ) ΔE ([2]; Red No. 401 0.001 wt %): 1.02 | Sunlight exposure (80 MJ) Appearance ([2]; Yellow No. 5 0.001 wt %): B | Sunlight exposure (80 MJ) ΔE ([2]; Yellow No. 5 0.001 wt %): 0.88 | Sunlight exposure (80 MJ) Appearance [2, 30]: A | Sunlight exposure (80 MJ) ΔE [2, 30]: 0.48 | Sunlight exposure (80 MJ) Appearance ([2]; Yellow No. 203 0.001 wt %): B | Sunlight exposure (80 MJ) ΔE ([2]; Yellow No. 203 0.001 wt %): 0.68 | Sunlight exposure (80 MJ) Smell evaluation [3, 8]: B | Sunlight exposure (80 MJ) Smell evaluation [3, 9]: B | Sunlight exposure (80 MJ) Smell evaluation [3, 10]: B | Sunlight exposure (80 MJ) Smell evaluation [3, 11]: B | Sunlight exposure (80 MJ) Smell evaluation [3, 12]: B | Sunlight exposure (80 MJ) Smell evaluation [3, 13]: B | Sunlight exposure (80 MJ) Smell evaluation [3, 14]: B | Sunlight exposure (80 MJ) Smell evaluation [3, 15]: B | Sunlight exposure (80 MJ) Smell evaluation [3, 16]: B | Sunlight exposure (80 MJ) Smell evaluation [3, 17]: B | Sunlight exposure (80 MJ) Smell evaluation [3, 18]: B | Sunlight exposure (80 MJ) Smell evaluation [3, 19]: B | Sunlight exposure (80 MJ) Smell evaluation [3, 20]: B | Sunlight exposure (80 MJ) Smell evaluation [3, 21]: B | Sunlight exposure (80 MJ) Smell evaluation [3, 22]: B
